Measurements: paper PMC11237774, “On-target, dual aminopeptidase inhibition provides cross-species antimalarial activity” (mBio, 2024)
Where two headings read alike, the source gives them in different places.

Columns and labels:
[1] = molecular target: T1, Pv-M17 (Plasmodium vivax, UniProt A5K3U9); assay: Recombinant aminopeptidase fluorescence assay (H-Leu-NHMec); assay type: biochemical, P. vivax; settings: Pv M17, Morrison equation; read-out: Ki^(app) ± SEM
T1 construct: made in house
Experimental: (§1) Inhibition of aminopeptidase activity assays were performed against nine aminopeptidases: the M1 alanyl and M17 leucyl aminopeptidases from P. falciparum (PfA-M1; PfA-M17), P. vivax (Pv-M1; Pv-M17), and P. berghei (Pb-M1; Pb-M17), and three human M1 homologs: LTA4H (OriGene TP307617), ERAP1 (OriGene TP314469), and ERAP2 (Creative BioMart ERAP2-304H). The Plasmodium enzymes were produced recombinantly as described previously ([16], [17]), and the human recombinant enzymes were purchased from commercial suppliers as indicated.
(§2) The concentration of H-Leu-NHMec in the assay was held constant for each enzyme and ranged from 10 to 100 µM, depending on the enzyme. Reactions were measured at 37°C in white 384-well plates in a total volume of 25 or 50 µL using a spectrofluorimeter (BMG FLUOstar) with excitation at 355 nm and emission at 460 nm. The fluorescence signal was continuously monitored until a final steady-state velocity, v, was obtained. Inhibition constants were calculated from biological triplicates made from three different protein preparations.
(§3) Substrate concentrations were selected to allow sensitive detection of enzyme activity while not exceeding the Km for each enzyme. A compound concentration range was selected to obtain a complete inhibition curve (0%–100 %) in biological triplicate. Where possible, the Ki values were calculated by plotting the initial rates versus inhibitor concentration and fitting to the Morrison equation for tight-binding inhibitors in GraphPad Prism (V.8.4.1; non-linear regression method).

[2] = molecular target: Pb-M17 (Plasmodium berghei, UniProt A0A509APA2); assay: as above; assay type: biochemical; settings: Pb M17, Morrison equation; read-out: Ki^(app) ± SEM
Experimental: as §1, §2, §3

[3] = tested on: Pf3D7; assay: Parasite reduction ratio assay; assay type: cell-based, P. falciparum
Experimental: Assays were performed as described previously with some alterations ([37]). […] Specifically, media containing compound was placed in wells every 24 h for up 120 h. […] Parasite growth was measured at day 21 using SYBR green I as described above. Fluorescence was used to determine at what treatment day wells became positive for growth when compared with the well before it; greater than double the fluorescence was determined to be a positive well. […] Experiments were performed in two or three biological replicates in quadruplicate.

[4] = tested on: 7G8; assay: microbe, parasite or virus in culture; assay type: cell-based, P. falciparum; settings: Plasmodium falciparum, read-out: EC50 nM (mean)
Experimental: (§4) In vitro testing was performed using the modified [^3H]hypoxanthine incorporation assay, as previously reported ([34]). The specific mutations in the field isolates (see Table 1, top six strains) have been previously described ([35], [36]), as have the specific mutations in the laboratory-selected Dd2 parasites (see Table 1, remaining five strains) ([36]).

[5] = tested on: Cam3.1 (MRA1240); assay: microbe, parasite or virus in culture; assay type: cell-based, P. falciparum; settings: Plasmodium falciparum, read-out: EC50 nM (mean)
Experimental: as §4

[6] = tested on: Dd2; assay: microbe, parasite or virus in culture; assay type: cell-based, P. falciparum; settings: Plasmodium falciparum, DD2, read-out: EC50 nM (mean)
Experimental: as §4

[7] = tested on: K1; assay: microbe, parasite or virus in culture; assay type: cell-based, P. falciparum; settings: Plasmodium falciparum, read-out: EC50 nM (mean)
Experimental: as §4

[8] = tested on: NF54; assay: microbe, parasite or virus in culture; assay type: cell-based, P. falciparum; settings: Plasmodium falciparum
Experimental: as §4

[9] = tested on: TM90C2B; assay: microbe, parasite or virus in culture; assay type: cell-based, P. falciparum; settings: Plasmodium falciparum, read-out: EC50 nM (mean)
Experimental: as §4

[10] = molecular target: T2, HDAC1 (Homo sapiens, UniProt Q13547); assay: Eurofins Cerep safety pharmacology screening; assay type: biochemical; settings: read-out: Mean % inhibition (n=2); HDAC1, 10 µM
T2 construct: Eurofins Cerep (contract screen)
Source text: (§5) Results showing any inhibition or stimulation higher than 50% are considered to represent significant effects of the test compounds.

[11] = molecular target: T3, HDAC10 (Homo sapiens, UniProt Q969S8); assay: Eurofins Cerep safety pharmacology screening; assay type: biochemical; settings: read-out: Mean % inhibition (n=2); HDAC10, 10 µM
T3 construct: Eurofins Cerep (contract screen)
Source text: as §5

[12] = molecular target: T4, HDAC2 (Homo sapiens, UniProt Q92769); assay: Eurofins Cerep safety pharmacology screening; assay type: biochemical; settings: read-out: Mean % inhibition (n=2); HDAC2, 10 µM
T4 construct: Eurofins Cerep (contract screen)
Source text: as §5

[13] = molecular target: T5, HDAC7 (Homo sapiens, UniProt Q8WUI4); assay: Eurofins Cerep safety pharmacology screening; assay type: biochemical; settings: read-out: Mean % inhibition (n=2); HDAC7, 10 µM
T5 construct: Eurofins Cerep (contract screen)
Source text: as §5

[14] = molecular target: T6, HDAC8 (Homo sapiens, UniProt Q9BY41); assay: Eurofins Cerep safety pharmacology screening; assay type: biochemical; settings: read-out: Mean % inhibition (n=2); HDAC8, 10 µM
T6 construct: Eurofins Cerep (contract screen)
Source text: as §5

[15] = molecular target: T7, HDAC9 (Homo sapiens, UniProt Q9UKV0); assay: Eurofins Cerep safety pharmacology screening; assay type: biochemical; settings: read-out: Mean % inhibition (n=2); HDAC9, 10 µM
T7 construct: Eurofins Cerep (contract screen)
Source text: as §5

[16] = molecular target: T8, MMP-14 (Homo sapiens, UniProt P50281); assay: Eurofins Cerep safety pharmacology screening; assay type: biochemical; settings: read-out: Mean % inhibition (n=2); MMP-14, 10 µM
T8 construct: Eurofins Cerep (contract screen)
Source text: as §5

[17] = molecular target: T9, MMP-3 (Homo sapiens, UniProt P08254); assay: Eurofins Cerep safety pharmacology screening; assay type: biochemical; settings: read-out: Mean % inhibition (n=2); MMP-3, 10 µM
T9 construct: Eurofins Cerep (contract screen)
Source text: as §5

[18] = molecular target: T10, MMP-7 (Homo sapiens, UniProt P09237); assay: Eurofins Cerep safety pharmacology screening; assay type: biochemical; settings: read-out: Mean % inhibition (n=2); MMP-7, 10 µM
T10 construct: Eurofins Cerep (contract screen)
Source text: as §5

[19] = molecular target: T11, MMP-8 (Homo sapiens, UniProt P22894); assay: Eurofins Cerep safety pharmacology screening; assay type: biochemical; settings: read-out: Mean % inhibition (n=2), MMP-8, 10 µM
T11 construct: Eurofins Cerep (contract screen)
Source text: as §5

[20] = molecular target: T12, MMP-9 (Homo sapiens, UniProt P14780); assay: Eurofins Cerep safety pharmacology screening; assay type: biochemical; settings: read-out: Mean % inhibition (n=2); MMP-9, 10 µM
T12 construct: Eurofins Cerep (contract screen)
Source text: as §5

[21] = tested on: MMP2, 7, 8, 9, and 13; design: method as in PMID 30537832; settings: tested up to 200 µM; cited from earlier work
[22] = In vivo exposure after single oral dosing; settings: male, Swiss outbred, mouse, plasma, 50 mg/kg
Experimental: This produced a uniform off-white milky suspension of pH 6.0. […] Samples were collected by either submandibular bleed (~120 µL) or terminal cardiac puncture (under inhaled isoflurane anesthesia). Blood samples were centrifuged immediately, and supernatant plasma was removed and stored at −80°C until analysis as described above.

T5 sequence (Q8WUI4 whole entry): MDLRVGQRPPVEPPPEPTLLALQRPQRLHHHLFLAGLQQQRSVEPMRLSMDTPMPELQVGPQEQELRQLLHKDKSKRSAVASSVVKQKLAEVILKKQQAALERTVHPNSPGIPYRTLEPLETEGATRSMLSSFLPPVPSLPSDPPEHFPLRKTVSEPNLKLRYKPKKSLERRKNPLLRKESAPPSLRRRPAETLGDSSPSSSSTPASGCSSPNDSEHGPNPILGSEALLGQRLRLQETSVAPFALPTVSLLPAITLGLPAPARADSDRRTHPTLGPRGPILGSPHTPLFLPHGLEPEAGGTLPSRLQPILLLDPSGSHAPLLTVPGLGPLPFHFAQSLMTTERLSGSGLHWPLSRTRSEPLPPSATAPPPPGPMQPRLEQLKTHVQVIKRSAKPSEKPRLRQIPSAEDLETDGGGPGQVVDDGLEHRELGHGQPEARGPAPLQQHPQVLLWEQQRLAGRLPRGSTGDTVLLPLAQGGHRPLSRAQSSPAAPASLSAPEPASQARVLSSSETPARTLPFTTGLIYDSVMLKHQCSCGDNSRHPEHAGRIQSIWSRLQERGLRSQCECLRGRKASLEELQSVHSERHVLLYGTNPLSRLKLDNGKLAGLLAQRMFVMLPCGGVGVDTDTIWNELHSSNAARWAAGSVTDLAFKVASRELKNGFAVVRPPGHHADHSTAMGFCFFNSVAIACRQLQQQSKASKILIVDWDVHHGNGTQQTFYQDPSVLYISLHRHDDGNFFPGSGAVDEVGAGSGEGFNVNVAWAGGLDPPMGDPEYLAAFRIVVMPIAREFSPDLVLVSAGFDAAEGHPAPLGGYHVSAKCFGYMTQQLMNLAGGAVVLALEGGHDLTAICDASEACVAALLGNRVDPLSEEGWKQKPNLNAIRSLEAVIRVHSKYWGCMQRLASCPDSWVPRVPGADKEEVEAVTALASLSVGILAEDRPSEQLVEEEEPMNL
T7 sequence (Q9UKV0 whole entry): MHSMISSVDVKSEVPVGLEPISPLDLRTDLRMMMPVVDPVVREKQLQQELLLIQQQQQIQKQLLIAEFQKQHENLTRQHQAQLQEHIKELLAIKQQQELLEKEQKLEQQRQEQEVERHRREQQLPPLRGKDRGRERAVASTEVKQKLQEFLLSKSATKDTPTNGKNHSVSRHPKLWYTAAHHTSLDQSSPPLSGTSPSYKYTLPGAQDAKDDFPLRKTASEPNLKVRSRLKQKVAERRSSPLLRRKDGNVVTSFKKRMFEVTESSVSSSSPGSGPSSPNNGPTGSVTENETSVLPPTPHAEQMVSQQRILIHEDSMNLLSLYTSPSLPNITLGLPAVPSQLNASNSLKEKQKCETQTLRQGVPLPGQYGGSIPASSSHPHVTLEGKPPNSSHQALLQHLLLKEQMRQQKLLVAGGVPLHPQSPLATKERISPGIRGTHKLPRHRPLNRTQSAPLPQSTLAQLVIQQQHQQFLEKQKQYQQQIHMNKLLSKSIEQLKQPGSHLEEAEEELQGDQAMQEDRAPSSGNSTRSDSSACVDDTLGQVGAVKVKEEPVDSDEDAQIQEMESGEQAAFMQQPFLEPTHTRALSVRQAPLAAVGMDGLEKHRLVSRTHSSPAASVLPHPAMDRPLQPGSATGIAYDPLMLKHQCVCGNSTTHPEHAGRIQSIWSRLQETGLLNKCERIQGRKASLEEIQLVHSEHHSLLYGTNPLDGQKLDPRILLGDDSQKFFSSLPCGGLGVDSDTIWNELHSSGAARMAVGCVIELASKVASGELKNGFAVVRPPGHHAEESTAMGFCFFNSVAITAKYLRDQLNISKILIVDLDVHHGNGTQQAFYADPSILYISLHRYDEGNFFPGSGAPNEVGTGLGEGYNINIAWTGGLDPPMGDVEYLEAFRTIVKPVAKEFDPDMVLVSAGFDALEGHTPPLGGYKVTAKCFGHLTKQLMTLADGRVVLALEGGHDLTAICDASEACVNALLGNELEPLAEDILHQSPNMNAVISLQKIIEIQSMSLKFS
T4 sequence (Q92769 whole entry): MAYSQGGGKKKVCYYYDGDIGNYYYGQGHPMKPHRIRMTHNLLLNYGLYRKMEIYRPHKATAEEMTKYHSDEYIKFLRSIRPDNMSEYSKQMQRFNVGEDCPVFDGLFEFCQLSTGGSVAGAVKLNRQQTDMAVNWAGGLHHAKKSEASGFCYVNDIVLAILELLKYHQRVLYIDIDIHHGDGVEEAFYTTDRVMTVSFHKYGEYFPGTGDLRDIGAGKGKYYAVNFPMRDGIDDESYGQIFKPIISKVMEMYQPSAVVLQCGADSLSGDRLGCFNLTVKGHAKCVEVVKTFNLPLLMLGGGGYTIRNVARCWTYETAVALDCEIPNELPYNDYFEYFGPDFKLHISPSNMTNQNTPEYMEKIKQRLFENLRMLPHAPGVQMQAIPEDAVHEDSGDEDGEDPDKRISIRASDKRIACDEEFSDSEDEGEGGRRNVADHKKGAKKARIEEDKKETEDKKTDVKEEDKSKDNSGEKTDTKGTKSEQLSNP
T2 sequence (Q13547 whole entry): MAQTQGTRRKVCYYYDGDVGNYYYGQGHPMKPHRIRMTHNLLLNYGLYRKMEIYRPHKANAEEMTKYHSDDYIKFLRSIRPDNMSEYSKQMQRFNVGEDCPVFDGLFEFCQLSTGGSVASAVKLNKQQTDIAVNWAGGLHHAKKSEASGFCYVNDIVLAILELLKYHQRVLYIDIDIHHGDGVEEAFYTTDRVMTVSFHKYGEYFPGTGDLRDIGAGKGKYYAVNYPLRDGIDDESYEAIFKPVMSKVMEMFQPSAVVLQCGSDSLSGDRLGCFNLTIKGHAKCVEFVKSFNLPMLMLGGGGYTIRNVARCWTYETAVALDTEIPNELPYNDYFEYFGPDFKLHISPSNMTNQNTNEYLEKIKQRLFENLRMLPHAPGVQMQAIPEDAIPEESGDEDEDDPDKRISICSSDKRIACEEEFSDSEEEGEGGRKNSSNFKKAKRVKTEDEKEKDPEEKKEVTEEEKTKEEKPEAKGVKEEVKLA
T12 sequence (P14780 94-707): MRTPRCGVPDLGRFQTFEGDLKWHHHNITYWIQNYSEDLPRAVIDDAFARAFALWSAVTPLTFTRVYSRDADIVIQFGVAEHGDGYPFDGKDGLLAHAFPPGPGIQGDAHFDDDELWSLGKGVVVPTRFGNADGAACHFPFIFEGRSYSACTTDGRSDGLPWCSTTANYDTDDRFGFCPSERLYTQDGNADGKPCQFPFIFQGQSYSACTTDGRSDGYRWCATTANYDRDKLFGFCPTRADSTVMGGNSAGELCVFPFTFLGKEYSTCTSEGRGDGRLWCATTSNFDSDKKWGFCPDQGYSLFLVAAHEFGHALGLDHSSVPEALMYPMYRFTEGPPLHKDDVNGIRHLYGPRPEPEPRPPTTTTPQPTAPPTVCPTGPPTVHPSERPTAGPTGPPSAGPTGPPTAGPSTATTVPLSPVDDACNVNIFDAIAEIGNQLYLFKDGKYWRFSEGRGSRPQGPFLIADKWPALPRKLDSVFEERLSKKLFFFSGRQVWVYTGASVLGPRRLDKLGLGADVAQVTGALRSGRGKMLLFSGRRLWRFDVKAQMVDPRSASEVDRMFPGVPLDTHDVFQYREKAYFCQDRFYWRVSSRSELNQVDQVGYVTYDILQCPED
T6 sequence (Q9BY41 whole entry): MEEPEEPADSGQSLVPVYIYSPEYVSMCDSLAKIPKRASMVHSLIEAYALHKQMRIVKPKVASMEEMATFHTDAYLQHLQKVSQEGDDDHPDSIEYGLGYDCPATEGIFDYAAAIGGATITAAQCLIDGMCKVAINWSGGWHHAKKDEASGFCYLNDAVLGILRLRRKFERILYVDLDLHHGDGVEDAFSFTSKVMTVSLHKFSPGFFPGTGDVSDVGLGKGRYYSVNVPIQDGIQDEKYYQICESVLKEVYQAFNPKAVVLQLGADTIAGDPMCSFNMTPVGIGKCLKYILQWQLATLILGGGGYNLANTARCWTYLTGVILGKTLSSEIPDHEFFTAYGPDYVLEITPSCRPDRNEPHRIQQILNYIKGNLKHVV
Chain of Pb-M17 (A0A509APA2 entry or part of it): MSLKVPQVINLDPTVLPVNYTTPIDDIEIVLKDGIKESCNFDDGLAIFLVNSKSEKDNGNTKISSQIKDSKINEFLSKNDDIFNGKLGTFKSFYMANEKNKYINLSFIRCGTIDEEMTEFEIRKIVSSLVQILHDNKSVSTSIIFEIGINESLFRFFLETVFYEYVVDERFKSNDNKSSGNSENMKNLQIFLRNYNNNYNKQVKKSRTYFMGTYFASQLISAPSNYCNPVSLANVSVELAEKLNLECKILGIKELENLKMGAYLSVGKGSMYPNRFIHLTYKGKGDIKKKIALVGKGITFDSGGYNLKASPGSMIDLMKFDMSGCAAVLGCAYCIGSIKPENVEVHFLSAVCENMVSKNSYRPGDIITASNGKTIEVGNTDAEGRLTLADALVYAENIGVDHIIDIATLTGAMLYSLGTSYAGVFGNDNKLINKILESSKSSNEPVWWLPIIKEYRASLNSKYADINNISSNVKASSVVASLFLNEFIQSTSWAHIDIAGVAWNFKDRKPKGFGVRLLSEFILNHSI
T10 sequence (P09237 95-267): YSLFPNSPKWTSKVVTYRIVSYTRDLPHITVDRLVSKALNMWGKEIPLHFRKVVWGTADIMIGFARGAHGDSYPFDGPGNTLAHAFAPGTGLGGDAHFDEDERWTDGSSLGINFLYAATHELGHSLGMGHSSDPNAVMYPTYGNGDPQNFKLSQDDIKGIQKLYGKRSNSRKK
T11 sequence (P22894 101-467): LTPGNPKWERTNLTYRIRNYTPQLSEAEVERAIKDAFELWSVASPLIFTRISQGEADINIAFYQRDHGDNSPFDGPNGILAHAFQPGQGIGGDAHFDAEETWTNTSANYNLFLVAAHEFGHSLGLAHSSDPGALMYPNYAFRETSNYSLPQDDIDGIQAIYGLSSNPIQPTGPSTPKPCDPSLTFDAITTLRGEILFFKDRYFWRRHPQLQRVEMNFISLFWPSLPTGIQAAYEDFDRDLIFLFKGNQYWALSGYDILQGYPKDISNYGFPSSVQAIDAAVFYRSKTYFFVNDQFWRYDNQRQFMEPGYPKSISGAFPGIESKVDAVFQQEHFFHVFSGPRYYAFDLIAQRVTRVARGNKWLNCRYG

With `CC(C)(C)CC(=O)NC(C(=O)NO)c1ccc(-c2cc(F)c(F)c(F)c2)cc1` (centres unmarked) [MMV1557817, N-(2-(hydroxyamino)−2-oxo-1-(3′,4′,5′-trifluoro-[1,1′-biphenyl]-4-yl)ethyl)-3,3-dimethylbutanamide] the Ki [1] was 208 ± 20 nM, the Ki [2] was 130 ± 7 nM and the “99.9% PCT” value ([3]; Pf3D7, 10× EC50) was 86 h. For the same compound, the Lag phase ([3]; Pf3D7, 10× EC50) was 72 h, the “Log (PRR)” value ([3]; Pf3D7, 10× EC50, over one cycle) was 2.2 ± 0.2 and the EC50 [4] was 28 nM. The EC50 [5] was 23 nM, the EC50 [6] was 23 nM and the EC50 [7] was 26 nM. The EC50 ([8]; NF54, read-out: unbound EC50) was 3.4 nM, the EC50 ([8]; NF54, sensitive strain, read-out: EC50 nM (mean)) was 22 nM and the EC50 [9] was 21 nM. It also gave an inhibition at 10 µM [10] of 2.8%, an inhibition at 10 µM [11] of 5.3% and an inhibition at 10 µM [12] of 3%. For the same compound, the inhibition at 10 µM [13] was 7.7%, the inhibition at 10 µM [14] was 6.3% and the inhibition at 10 µM [15] was -3.6%. It also gave an inhibition at 10 µM [16] of 24.1%, an inhibition at 10 µM [17] of -0.8% and an inhibition at 10 µM [18] of -6.7%. The inhibition at 10 µM [19] was 52.6%, the inhibition at 10 µM [20] was 46.3% and the off-target inhibition [21] was “limited off-target inhibitory affects”. The AUC(0-inf) [22] was 15.2 µM·h, the AUC(0-t) [22] was 14.9 µM·h and the Cmax [22] was 5.2 µM. For the same compound, the Tmax [22] was 0.5 h and the half-life [22] was 4.3 h.
